Here are results for 23 compounds from patent publication US4843087A (priority 1986, dated 1989).

Test [1] relates to Polio 2. In words: microbe, parasite or virus in culture. In kind it is cell-based, poliovirus. As to conditions: Enterovirus C, HeLa, read-out: Polio 2 MIC.
Test [2] deals with human rhinovirus (HRV) serotypes. In words: microbe, parasite or virus in culture. The class given is cell-based. As to conditions: for MIC50: read-out: Rhinovirus MIC50; for IC (MIC80 of serotype panel): read-out: Rhinovirus MIC80.

≈ marks a conversion by molar mass, not a printed value.

As to `Cc1cc(CCCCCOc2ccc(-c3nc(C)c(C)o3)cc2)on1` [89(d), 5-{5-[4-(4,5-Dimethyl-2-oxazolyl)phenoxy]pentyl}-3-methylisoxazole], the MIC in test [1] worked out at 0.16 µg/mL (≈ 0.47 µM). Also, in test [2], the MIC50 was 0.19 µg/mL (≈ 0.558 µM) and the IC (MIC80 of serotype panel) was determined as 0.77 µg/mL.
With `CCN(CC)Cc1cc(CCCCCCCOc2ccc(C3=NCCO3)cc2)on1` [Example 137, 5-{7-[4-(4,5-Dihydro-2-oxazolyl)phenoxy]heptyl}-3-(diethylaminomethyl)isoxazole], the MIC in test [1] was found to be 2 µg/mL (≈ 4.84 µM). In test [2], the MIC50 came to 3.25 µg/mL (≈ 7.87 µM) and the IC (MIC80 of serotype panel) came to 6.2 µg/mL.
In the same order, the values of `Cc1noc(CCCCCCCOc2ccc(C3=NCCO3)cc2Cl)c1CO` [Example 43] are 0.3 µg/mL (≈ 0.737 µM), 0.31 µg/mL (≈ 0.762 µM) and 1 µg/mL.
For `Cc1cc(CCCCCOc2ccc(C3=NC(C)(C)CO3)cc2)on1` [Example 62, 5-{5-[4-(4,5-Dihydro-4,4-dimethyl-2-oxazolyl)phenoxy]pentyl}-3-methylisoxazole], in test [1], the MIC came out at 0.51 µg/mL (≈ 1.49 µM). In test [2], the MIC50 is 1.5 µg/mL (≈ 4.38 µM) and the IC (MIC80 of serotype panel) was found to be 2.4 µg/mL.
In the case of `Cc1cc(CCCCCOc2ccc(C3=NCCCO3)cc2)on1` [Example 95, 5,6-Dihydro-2-{4-[5-(3-methyl-5-isoxazolyl)pentyloxy]phenyl}-4H-1,3-oxazine], the MIC in test [1] was 0.15 µg/mL (≈ 0.457 µM). In test [2], the MIC50 was found to be 1.65 µg/mL (≈ 5.02 µM) and the IC (MIC80 of serotype panel) amounted to 26.3 µg/mL.
On to `Cc1cc(CCCCCOc2ccc(-c3ncc(Cl)o3)cc2)on1` [Example 145, 5-{5-[4-(5-Chloro-2-oxazolyl)phenoxy]pentyl}-3-methylisoxazole], for which, in test [1], the MIC came to 0.033 µg/mL (≈ 0.0952 µM). For the same compound, in test [2], the MIC50 stood at 0.2 µg/mL (≈ 0.577 µM) and the IC (MIC80 of serotype panel) was determined as 0.29 µg/mL.
Consider `Cc1cc(CCCCCCc2c(Cl)cc(C3=NCCO3)cc2Cl)on1` [163(b), 5-{6-[2,6-Dichloro-4-(4,5-dihydro-2-oxazolyl)phenyl]hexyl}-3-methylisoxazole], for which the MIC in test [1] came to 1.4 µg/mL (≈ 3.67 µM). In test [2], the MIC50 came to 0.49 µg/mL (≈ 1.29 µM) and the IC (MIC80 of serotype panel) was 0.73 µg/mL.
As to `Cc1cc(CCCCCOc2ccc(-c3cnco3)cc2)on1` [Example 96(b), 3-Methyl-5-{5[4-(5-oxazolyl)phenoxy]pentyl}isoxazole], the MIC in test [1] was 0.095 µg/mL (≈ 0.304 µM). Further, in test [2], the MIC50 was 1.4 µg/mL (≈ 4.48 µM) and the IC (MIC80 of serotype panel) is 2.5 µg/mL.
For the compound `Cc1cc(CCCCCOc2ccc(C3=NCCO3)c(O)c2C)on1` [Example 80, 5-{5-[4-(4,5-Dihydro-2-oxazolyl)-3-hydroxy-2-methylphenoxy]pentyl}-3-methylisoxazole], the MIC in test [1] amounted to 0.11 µg/mL (≈ 0.319 µM). In addition, in test [2], the MIC50 is 0.13 µg/mL (≈ 0.377 µM) and the IC (MIC80 of serotype panel) was 0.27 µg/mL.
In the same order, the values of `COc1cc(C2=NCCO2)cc(OC)c1OCCCCCc1cc(C)no1` [158(d), 5-{5-[4-(4,5-Dihydro-2-oxazolyl)-2,6-dimethoxyphenoxy]pentyl}-3-methylisoxazole] are 1 µg/mL (≈ 2.67 µM), 2.1 µg/mL (≈ 5.61 µM) and 5 µg/mL.
In the case of `COCc1cc(CCCCCOc2c(Cl)cc(C3=NCCO3)cc2Cl)on1` [Example 117, 5-{5-[2,6-Dichloro-4-(4,5-dihydro-2-oxazolyl)phenoxy]pentyl}-3-(methoxymethyl)isoxazole], the MIC in test [1] was determined as 0.39 µg/mL (≈ 0.944 µM). Further, in test [2], the MIC50 stood at 0.09 µg/mL (≈ 0.218 µM) and the IC (MIC80 of serotype panel) came out at 0.31 µg/mL.
In the same order, the values of `Cc1cc(CCCOCOCCOc2ccc(C3=NCCO3)cc2Cl)on1` [Example 82, 5-{3-[[2-[2-Chloro-4-(4,5-dihydro-2-oxazolyl)phenoxy]ethoxy]methoxy]propyl}-3-methylisoxazole] are 2.9 µg/mL (≈ 7.34 µM), 1.2 µg/mL (≈ 3.04 µM) and 5.4 µg/mL.
The like results for `CCc1cc(C2=NCCO2)ccc1OCCCCCc1cc(C)no1` [Example 60, 5-{5-[4-(4,5-Dihydro-2-oxazolyl)-2-ethylphenoxy]pentyl}-3-methylisoxazole] were, in that order, 0.24 µg/mL (≈ 0.701 µM), 0.1 µg/mL (≈ 0.292 µM) and 0.7 µg/mL.
`Cc1cc(CCCCCOc2ccc(-c3nc(C)c(C)o3)cc2C)on1` [Example 90, 5-{5-[4-(4,5-Dimethyl-2-oxazolyl)-2-methylphenoxy]pentyl}-3-methylisoxazole]: in test [1], the MIC worked out at 1.5 µg/mL (≈ 4.23 µM). Further, in test [2], the MIC50 came out at 0.2 µg/mL (≈ 0.564 µM) and the IC (MIC80 of serotype panel) turned out to be 0.49 µg/mL.
The like results for `Cc1cc(CCCCCCCOc2ccc(C3=NCCO3)cc2F)on1` [19(b), 5-{7-[4-(4,5-Dihydro-2-oxazolyl)-2-fluorophenoxy]heptyl}-3-methylisoxazole] were, in that order, 0.3 µg/mL (≈ 0.832 µM), 0.8 µg/mL (≈ 2.22 µM) and 99 µg/mL.
The like results for `Cc1cc(CCCCCOc2ccc(C3=NC(C)CO3)cc2)on1` (stereo not drawn) [Example 56, 5-{5-[4-(4,5-Dihydro-4-methyl-2-oxazolyl)phenoxy]pentyl}-3-methylisoxazole] were, in that order, 0.07 µg/mL (≈ 0.213 µM), 0.164 µg/mL (≈ 0.499 µM) and 25.3 µg/mL.
In the same order, the values of `Cc1cc(CCCCCCCOc2ccc(C3=NCCO3)c(O)c2)on1` [Example 59, 5-{7-[4-(4,5-Dihydro-2-oxazolyl)-3-hydroxyphenoxy]heptyl}-3-methylisoxazole] are 0.04 µg/mL (≈ 0.112 µM), 0.435 µg/mL (≈ 1.21 µM) and 25.2 µg/mL.
On to `Cc1cc(CCCCCOc2c(Br)cc(C3=NCCO3)cc2Br)on1` [Example 74, 5-{5-[2,6-Dibromo-4-(4,5-dihydro-2-oxazolyl)phenoxy]pentyl}-3-methylisoxazole], for which the MIC in test [1] was determined as 2 µg/mL (≈ 4.24 µM). Besides, in test [2], the MIC50 came out at 0.13 µg/mL (≈ 0.275 µM) and the IC (MIC80 of serotype panel) is 0.59 µg/mL.
The like results for `Cc1cc(CCCCCOc2c(F)c(F)c(C3=NCCO3)c(F)c2F)on1` [161(c), 5-{5-[4-(4,5-Dihydro-2-oxazolyl)-2,3,5,6-tetrafluorophenoxy]pentyl}-3-methylisoxazole] were, in that order, 0.05 µg/mL (≈ 0.129 µM), 0.25 µg/mL (≈ 0.647 µM) and 3.5 µg/mL.
In the same order, the values of `Cc1cc(CCCCCCCOc2ccc(C3=NCCO3)cc2Br)on1` [Example 45, 5-{7-[2-Bromo-4(4,5-dihydro-2-oxazolyl)phenoxy]heptyl}-3-methylisoxazole] are 0.5 µg/mL (≈ 1.19 µM), 0.16 µg/mL (≈ 0.38 µM) and 0.7 µg/mL.
In the same order, the values of `Cc1cc(COCCCCCOc2ccc(C3=NCCO3)cc2)on1` [Example 99, 5-{[[5-[4-(4,5-Dihydro-2-oxazolyl)phenoxy]pentyl]oxy]methyl}-3-methylisoxazole] are 0.27 µg/mL (≈ 0.784 µM), 1.3 µg/mL (≈ 3.77 µM) and 2.3 µg/mL.
Take `Cc1cc(CCCCCCCOc2ccc(C3=NCCO3)c(C)c2)on1` [38(b), 5-{7-[4-(4,5-Dihydro-2-oxazolyl)-3-methylphenoxy]heptyl}-3-methylisoxazole]: the MIC in test [1] stood at 0.3 µg/mL (≈ 0.842 µM). Moreover, in test [2], the MIC50 is 0.69 µg/mL (≈ 1.94 µM) and the IC (MIC80 of serotype panel) amounted to 0.9 µg/mL.
`Cc1cc(CCCCCOc2ccc(C3=NCCO3)cc2C=CBr)on1` [Example 147, 5-{5-[2-(2-Bromoethenyl)-4-(4,5-dihydro-2-oxazolyl)phenoxy]pentyl}-3-methylisoxazole]: the MIC in test [1] was determined as 0.4 µg/mL (≈ 0.954 µM). In test [2], the MIC50 stood at 0.23 µg/mL (≈ 0.549 µM) and the IC (MIC80 of serotype panel) was determined as 0.76 µg/mL.
